The nature of data set [1]: DON plasma pharmacokinetics in mice after i.v. administration (LC-MS after acidified butanol derivatization). The class given is in vivo. The settings on record: male, C57BL/6, mouse, iv, 1.6 mg/kg i.v. As to the method:
FIG. 5A and FIG. 5B show: (FIG. 5A) DON concentrations in plasma over time. Mice were administered DON at 1.6 mg/kg (i.v.). Mice were euthanized and blood was collected transcardially 0.25, 0.5, 1, 2, 4 and 6 hours after dosing. Blood was centrifuged, plasma collected and stored at −80° C. N-butanol containing 3N HCl (250 μL) was added directly to samples (50 μL) and centrifuged at 16,000×g for 5 min to precipitate proteins. An aliquot (200 μL) of the supernatant was incubated at 60° C. for 30 min. After derivatization, the samples were analyzed by LC-MS (methods); and (FIG. 5B) DON plasma to brain ratio analysis. Mice were administered DON (0.6 mg/kg, i.p.) and blood and brain were collected 1 h after DON administration. […] Resulting homogenates were centrifuged at 16,000×g for 5 min to precipitate proteins and analyzed the same way as the plasma samples. […]
(§1) When using plasma, DON was derivatized only using 3N HCl plus n-butanol and subsequently analyzed by LC-MS. […] After derivatization, an aliquot of the reaction mixture (2 μL) was injected and analyzed by LC-MS as stated above. The area under the curve (AUC) representing the signal intensity of the extracted ion (m/z 218.0942) for each sample was used to generate the standard curve using Agilent Mass Hunter Quantitative analysis software. […] DON concentrations in plasma samples were determined by interpolation using the standard curve. […]

Data set [2] in a line: DON plasma and brain concentrations in mice after i.p. administration (LC-MS after acidified butanol derivatization). The settings on record: for Kp at 1 h: brain/plasma. The format is in vivo. The protocol:
FIG. 5A and FIG. 5B show: (FIG. 5A) DON concentrations in plasma over time. Mice were administered DON at 1.6 mg/kg (i.v.). Mice were euthanized and blood was collected transcardially 0.25, 0.5, 1, 2, 4 and 6 hours after dosing. Blood was centrifuged, plasma collected and stored at −80° C. N-butanol containing 3N HCl (250 μL) was added directly to samples (50 μL) and centrifuged at 16,000×g for 5 min to precipitate proteins. An aliquot (200 μL) of the supernatant was incubated at 60° C. for 30 min. After derivatization, the samples were analyzed by LC-MS (methods); and (FIG. 5B) DON plasma to brain ratio analysis. Mice were administered DON (0.6 mg/kg, i.p.) and blood and brain were collected 1 h after DON administration. Plasma was isolated from blood samples as described in (FIG. 5A). Brains were collected following perfusion with PBS and frozen immediately at −80° C. Before bioanalysis, brains were weighed and n-butanol containing 3N HCl was added to each sample (5 μL/mg tissue) and homogenized using a pestle. Resulting homogenates were centrifuged at 16,000×g for 5 min to precipitate proteins and analyzed the same way as the plasma samples. All determinations in both (A) and (B) were carried out in triplicate. Error bars correspond to ±S.E.M; and
When using plasma, DON was derivatized only using 3N HCl plus n-butanol and subsequently analyzed by LC-MS. To generate the standard curve to determine DON concentrations in plasma, DON (10 μL of 1 mM water solution) was added to untreated mouse plasma (90 μL) in a low retention micro-centrifuge tube. Standard solutions (100 μL) were then prepared by serial dilution to generate concentrations from 10 nM to 100 μM at half-log intervals. Prior to extraction, frozen plasma samples were thawed on ice. N-butanol (250 μL) containing 3N HCl was added directly to standards (50 μL), vortexed and centrifuged at 16,000×g for 5 minutes in low retention micro-centrifuge tubes to precipitate proteins. […] After derivatization, an aliquot of the reaction mixture (2 μL) was injected and analyzed by LC-MS as stated above. The area under the curve (AUC) representing the signal intensity of the extracted ion (m/z 218.0942) for each sample was used to generate the standard curve using Agilent Mass Hunter Quantitative analysis software. […] DON concentrations in plasma samples were determined by interpolation using the standard curve.
When using brain, DON was derivatized only using 3N HCl plus n-butanol and subsequently analyzed by LC-MS. […] After derivatization, an aliquot of the reaction mixture (2 μL) was injected and analyzed by LC-MS as stated above. […] DON concentrations in brain samples were determined by interpolation using the standard curve. […]

The nature of data set [3]: DON concentration in plasma from DON-treated mice, direct versus derivatization protocols. The conditions noted are these: male, C57BL/6, mouse, in vivo, iv, 1.6 mg/kg, 1.6 mg/kg i.v., 15 min after administration, N=3, ±S.D. The protocol: Mouse plasma samples were obtained 15 min after DON administration (1.6 mg/kg, i.v.). For LC-MS bioanalysis of underivatized DON from plasma, DON was extracted from plasma with methanol, dried and resuspended in H2O and separated in a Hypercarb column. For LC-MS bioanalysis of derivatized DON from plasma, DON was derivatized in butanol containing 3N HCl for 30 min at 60° C., dried, reconstituted in 30% acetonitrile and separated by RPC. Analytes eluting after each chromatographic separation were detected by QTOF MS. N=3 for each treatment. Error bars correspond to ±S.D.
Methanol (250 μL) was added to plasma samples containing DON (50 μL); samples were centrifuged for 5 min at 16,000×g to precipitate proteins. […] Analytes were detected with an Agilent 6520 QTOF in MS mode as when analyzing derivatized DON by LC-MS.
as §1

Read-outs that look alike come from different tables or passages of the source.

For the molecule `[N-]=[N+]=CC(=O)CC[C@H](N)C(=O)O` [DON, 6-Diazo-5-oxo-L-norleucine], in data set [1] (in vivo, 0.25-6 h, read-out: exposure of DON estimated from the area under the curve (AUC)), the exposure (AUC) is 8 µM·h. Further, the half-life in data set [1] was 1.2 h. Moreover, in data set [2] (0.6 mg/kg i.p., 1 h after administration, brains perfused with PBS, ±S.E.M.), the “DON concentration in brain” value came to 0.22±0.18 nmol/g tissue. The Kp at 1 h in data set [2] (male, C57BL/6, mouse, intraperitoneal, 0.6 mg/kg, at 1 h, read-out: brain/plasma ratio) was 0.1; in data set [2] (male, C57BL/6, mouse, ip, 0.6 mg/kg i.p., 1 h, read-out: brain to plasma ratio), approximately 0.1. In addition, the concentration at 1 h in data set [2] (male, C57BL/6, mouse, plasma, ip, 0.6 mg/kg i.p., 1 h after administration, ±S.E.M.) is 1.7 ± 0.5 µM. In addition, the concentration at 15 min in data set [3] (read-out: DON concentration in plasma, derivatization method (acidified butanol, LC-MS)) worked out at 4.2 µM; in data set [3] (read-out: DON concentration in plasma, direct method (underivatized DON, Hypercarb LC-MS)) it was 3.9 µM.

Usually AUC stands for the area under the concentration-time curve, a measure of exposure. Usually half-life stands for how long it takes for the measured level to halve. Low values mean fast loss, high ones slow loss.
